These results are taken from patent US6512003B2, “Synthetic spiroketal pyranes as potent anti-cancer agents and use” (Parker Hughes Institute, priority 1998, dated 2003).

The test system of assay [1] is human BT-20 breast cancer cells. The assay can be described thus: Apoptosis of breast cancer cells by transmission electron microscopy. Type of assay: cell-based. The following applies: BT-20 cells, FIG. 6. How it is done: (§1) The effects of spiroketal pyrans on the survival of human breast cancer cells were examined in vitro. Cells were incubated at 37° C. for the indicated time periods with the title compounds. At the end of the incubation, cells were washed twice with PBS and fixed in 2% paraformaldehyde and examined by microscopy.

Assay [2] has as its system human breast cancer cells. The experiment in a line: Confocal laser scanning microscopy of microtubules (alpha-tubulin immunofluorescence) and mitotic index. Type of assay: cell-based. Also noted: microtubule organization and cell morphology: dose or concentration left out as unconfirmed. The following applies: for microtubule organization and cell morphology: confocal microscopy, FIG. 7. As for the experimental part: as §1
The effects of SPIKET-P1 on human breast cancer cells was also examined using confocal laser scanning microscopy^14. After fixing, the cells were permeabilized and non-specific binding sites were blocked with 2.5% BSA in PBS containing 0.1% Triton X-100 for 30 minutes. Tubulin expression was examined by immunofluorescence using a monoclonal antibody against α-tubulin (Sigma Chemical Co, St. Louis, Mo.) at a dilution of 1:1000 and an lanti-mouse IgG conjugated to FITC. Cells were washed in PBS and counterstained with toto-3 (Molecular Probes Inc., Eugene, Oreg.) for 10 minutes at a dilution of 1:1000. Cells were washed again with PBS and the coverslips were mounted with Vectashield (Vector Labs, Burlingame, Calif.) and viewed with a confocal microscope (Bio-Rad MRC 1024) mounted in a Nikon Labhophot upright microscope.
Digital images were saved on a Jaz disk and processed with Adobe Photoshop software (Adobe Systems, Mountain View, Calif.).
Vehicle-treated control cells are adherent with a well organized microtubule cytoskeleton, seen in the control (FIG. 7A) in green. […] Additionally, membrane blebbing and nuclear fragmentation was observed. Large vacuoles were present within treated cells. SPIKET-P-1 also affected the mitotic index, 2.25% of control cells were in mitosis whereas 0.0% of treated cells were in mitosis (23/1024 vs 0/1000, respectively).

For the next assay, the system named is tubulin. The following applies: cited from earlier work.

With `OC1CC(CCOCc2ccccc2)OC2(C1)CC(O)CC(CCOCc1ccccc1)O2` (stereo not shown) [NP-25, 1,13-dibenzyloxy-5,9-dihydroxy-spiroketal], the induction of apoptosis entry in assay [1] is recorded as “induce apoptosis in human breast cancer cells”.

Consider `OC[C@H]1CCCC2(CCC[C@H](CO)O2)O1` [SPIKET-P1, [(2R,8R)-8-(hydroxymethyl)-1,7-dioxaspiro[5,5]undec-2-yl]methan-1-ol], for which the “microtubule organization and cell morphology” value is “destruction of the microtubule organization, membrane blebbing, and nuclear fragmentation consistent with apoptosis” in assay [2]; “fewer, less organized microtubules” in assay [2] (listed as SPA-1). The “mitotic index (cells in mitosis)” value in assay [2] (treated cells 0/1000, control cells 2.25% (23/1024)) is 0.0%. The induction of apoptosis result in assay [1] was “induce apoptosis in human breast cancer cells”.

Regarding `c1ccc(COC[C@H]2CCCC3(CCC[C@H](COCc4ccccc4)O3)O2)cc1` [SPIKET-P1-P, Benzyl-protected SPIKET-P1], the induction of apoptosis result in assay [1] was “induce apoptosis in human breast cancer cells”.

Take Spongistatin: in the assay on tubulin, the “inhibition of binding of vinc alkaloids / colchicin to tubulin” value is reported as “inhibit the binding of vinc alkaloids (but not colchicin) to tubulin”.
